Results on five compounds are retold here after the NIST ThermoML archive (doi:10.1021/je900237e).

Numbers after ± are expanded uncertainties.

For this data set the following is noted: 101.33 kPa, Liquid; for speed of sound: Pulse-echo method; for mass density: Pycnometric method.

For the compound `Cc1ccccc1C` [1,2-dimethylbenzene], where the note is “298.15 K”, the speed of sound came out at 1344 ± 2 m/s and the mass density came to 875.9 ± 0.46 kg/m3.

For `c1ccccc1` [benzene], where the note is “298.15 K”, the speed of sound was determined as 1298 ± 5 m/s and the mass density turned out to be 873.64 ± 5.5 kg/m3.

`Cc1ccccc1N` [2-methylaniline]: for the setting “298.15 K”, the mass density was 994.28 ± 0.57 kg/m3. The speed of sound (308.15 K) was found to be 1603 ± 2.3 m/s.

`Cc1ccccc1` [toluene]: under “298.15 K”, the speed of sound is given as 1305 ± 5 m/s and the mass density stood at 862.17 ± 5.4 kg/m3.

Regarding `Cc1ccc(C)cc1` [1,4-dimethylbenzene], under “298.15 K”, the speed of sound was 1310 ± 2 m/s and the mass density was determined as 858.63 ± 0.45 kg/m3.
